Data reported in publication PMC9583330, “Quinazoline-4(3H)-one-7-carboxamide Derivatives as Human Soluble Epoxide Hydrolase Inhibitors with Developable 5-Lipoxygenase Activating Protein Inhibition” (ACS Omega, 2022).
Like-named read-outs stand apart in the source and are kept apart here.

How the values were obtained:
Human recombinant sEH [1] = biological target: T1, Human recombinant sEH (Homo sapiens, UniProt P34913); assay: sEH cell-free fluorescence-based assay (PHOME substrate); format: biochemical; conditions: means ± SEM, n = 3; for IC50: cell-free assay, human sEH
T1 construct: made in house; host or cells: Sf9 insect cells, recombinant baculovirus from Dr. B. Hammock
T1 sequence (P34913 1-555): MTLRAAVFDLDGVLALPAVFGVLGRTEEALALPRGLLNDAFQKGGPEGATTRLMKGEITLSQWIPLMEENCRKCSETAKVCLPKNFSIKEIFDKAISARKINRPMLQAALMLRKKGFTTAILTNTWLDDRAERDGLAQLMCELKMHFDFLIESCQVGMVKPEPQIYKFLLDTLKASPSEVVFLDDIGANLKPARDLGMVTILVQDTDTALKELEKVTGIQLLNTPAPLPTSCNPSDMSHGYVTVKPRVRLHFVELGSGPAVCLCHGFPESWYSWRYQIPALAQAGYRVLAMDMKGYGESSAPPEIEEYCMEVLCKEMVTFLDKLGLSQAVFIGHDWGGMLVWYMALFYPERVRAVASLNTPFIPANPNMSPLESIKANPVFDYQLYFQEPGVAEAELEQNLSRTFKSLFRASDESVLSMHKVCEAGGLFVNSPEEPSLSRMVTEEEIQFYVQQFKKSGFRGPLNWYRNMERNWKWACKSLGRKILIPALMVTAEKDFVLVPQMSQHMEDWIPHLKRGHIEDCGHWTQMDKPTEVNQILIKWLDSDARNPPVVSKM
Procedure: Human recombinant sEH was expressed and purified as reported before.[46] In brief, Sf9 cells were infected with a recombinant baculovirus (kindly provided by Dr. B. Hammock, University of California, Davis, CA). Seventy-two hours post-transfection, cells were pelleted and sonicated (3 × 10 s at 4 °C) in lysis buffer containing NaHPO4 (50 mM, pH 8), NaCl (300 mM), glycerol (10%), EDTA (1 mM), phenylmethanesulfonyl fluoride (1 mM), leupeptin (10 μg/mL), and a soybean trypsin inhibitor (60 μg/mL). Supernatants after centrifugation at 100,000 × g (60 min, 4 °C) were subjected to benzylthio-sepharose-affinity chromatography in order to purify sEH by elution with 4-fluorochalcone oxide in PBS containing 1 mM DTT and 1 mM EDTA. Dialyzed and concentrated (Millipore Amicon-Ultra-15 centrifugal filter) enzyme solution was assayed for total protein with a Bio-Rad protein detection kit (Bio-Rad Laboratories, Munich, Germany), and the epoxide hydrolase activity was determined by using a fluorescence-based assay as described before.[47] Shortly, sEH was diluted in Tris buffer (25 mM, pH 7) supplemented with BSA (0.1 mg/mL) to an appropriate enzyme concentration and preincubated with test compounds or vehicle (0.1% DMSO) for 10 min at room temperature (RT). The reaction was started by the addition of 50 μM 3-phenyl-cyano(6-methoxy-2-naphthalenyl)methyl ester-2-oxiraneacetic acid (PHOME), a nonfluorescent compound that is enzymatically converted into fluorescent 6-methoxy-naphtaldehyde at RT. After 60 min, reactions were stopped by ZnSO4 (200 mM) and fluorescence was detected (λem 465 nm, λex 330 nm) using a NOVOstar microplate reader (BMG Labtech GmbH, Ortenberg, Germany), and potential fluorescence of test compounds was subtracted from the read-out, if required.

[2] = tested on: FLAP-mediated cellular LT formation in human neutrophils; assay: FLAP-dependent 5-LO product formation in intact neutrophils; format: cell-based; conditions: Neutrophil; for IC50: Homo sapiens, intact neutrophils challenged with 2.5 μM ionophore plus 20 μM arachidonic acid; for activity at 1 µM: 1 μM inhibitor, read-out: 5-LO product formation in neutrophils, remaining activity (% of control) at 1 μM; for activity at 1 µM / activity at 10 µM: human neutrophils, 2.5 μM Ca2+-ionophore A23187, means ± SEM, n = 4–5; for activity at 10 µM: 10 μM inhibitor, read-out: 5-LO product formation in neutrophils, remaining activity (% of control) at 10 μM
Procedure: Neutrophils were isolated from leukocyte concentrates obtained from freshly withdrawn peripheral blood of healthy adult male and female donors which were provided by the Institute of Transfusion Medicine, University Hospital Jena, Germany. The experimental protocol was approved by the ethical committee of the University Hospital Jena, and all methods were performed in accordance with the relevant guidelines and regulations. The leukocyte concentrates were mixed with dextran (from Leuconostoc spp. MW ∼40,000, Sigma Aldrich) for sedimentation of erythrocytes, and the supernatant was centrifuged on lymphocyte separation medium (Histopaque-1077, Sigma Aldrich). Contaminating erythrocytes in the pelleted neutrophils were removed by hypotonic lysis using distilled water. The neutrophils were washed twice in ice-cold PBS pH 7.4 and finally resuspended in PBS pH 7.4 plus 1 mg/mL glucose (PGC buffer).
Human neutrophils [5 × 10^6; in PGC buffer; incubation volume, 1 mL] were preincubated with 0.1% DMSO (vehicle) or with the compounds at 37 °C for 15 min. […] Samples were then subjected to solid-phase extraction on C18-columns (100 mg, UCT, Bristol, PA), and 5-LO products (LTB4 and its trans-isomers, and 5-H(p)ETE) were extracted and analyzed in the presence of internal standard PGB1 by RP-HPLC and UV detection as reported elsewhere.[45]

[3] = tested on: FLAP-mediated cellular LT formation in human neutrophils; set-up: method as in PMID 32045233; conditions: previously identified; read-out: IC50, inhibition of cellular leukotriene (LT) biosynthesis by targeting FLAP; cited from earlier work
Human recombinant sEH [4] = biological target: T1, Human recombinant sEH; set-up: method as in PMID 32045233; conditions: previously identified compound; cited from earlier work

melting point | IC50 (Human recombinant sEH [1]) [nM] | IC50 [2] [nM] | remaining activity at 10 µM (Human recombinant sEH [1]; residual activity at 10 μM, control = vehicle 100%) [%] | SMILES | activity at 1 µM [2] [%] | activity at 10 µM [2] [%] | IC50 [3] [nM] | activity against sEH (in words) (Human recombinant sEH [4])
220 to 222 °C | 1100 ± 100 | < 10000 |  | CC(C)(C)CNC(=O)c1ccc2c(=O)[nH]c(SCc3ccc(Cl)cc3)nc2c1 [Compound 36, 2-((4-Chlorobenzyl)thio)-N-neopentyl-4-oxo-3,4-dihydroquinazoline-7-carboxamide] | 89.5 ± 8.9 | 29.7 ± 7.2 |  | 
 |  |  |  | O=C(O)c1ccc2c(=O)n(Cc3ccccc3)c(SCc3ccc(Cl)c(Cl)c3)nc2c1 [Compound 5] |  |  | 870 | without any activity against sEH
217.9 to 219.3 °C | 500 ± 50 | < 10000 |  | CC(C)(C)CNC(=O)c1ccc2c(=O)[nH]c(SCc3ccccc3C(F)(F)F)nc2c1 [Compound 37, 2-((2-(Trifluoromethyl)benzyl)thio)-N-Neopentyl-4-oxo-3,4-dihydroquinazoline-7-carboxamide] | 97.6 ± 4 | 20.9 ± 12.1 |  | 
306.3 °C (dec.) | > 10000 | > 10000 | 71 | CC(C)NC(=O)c1ccc2c(=O)[nH]c(SCc3ccccc3Cl)nc2c1 [Compound 45, 2-((2-Chlorobenzyl)thio)-N-isopropyl-4-oxo-3,4-dihydroquinazoline-7-carboxamide] | 96.6 ± 6.7 | 70.3 ± 21.4 |  | 
